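Step 1: Grow cells in 96-well plates. Step 2: Expose to compound for 48 hours at 5 concentrations. Step 3: Interpolate endpoints linearly; if unreached, use highest concentration. The concentration for 50% growth inhibition is given as GI50.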 The source made the active and inactive calls. Cut-off read from the data, not from the text of the source: active = GI50 up to about 1.1 µM and inactive = higher.
Tests used:
Experiment in all cases: inhibition of tumour cell growth, NCI panel, 48 h
[1] = system: M14
[2] = system: HOP-62
[3] = system: MDA-MB-435
[4] = system: SN12C
[5] = system: SR
[6] = system: SNB-19
[7] = system: NCI/ADR-RES
[8] = system: U-251
[9] = system: HT-29
[10] = system: COLO 205
[11] = system: SK-MEL-28
[12] = system: LOX IMVI
[13] = system: RPMI-8226
[14] = system: SF-268
[15] = system: OVCAR-4
[16] = system: HCC 2998
[17] = system: RXF 393
[18] = system: CAKI-1
[19] = system: NCI-H226
[20] = system: DU-145

Structure (SMILES)	GI50 [1]	GI50 [2]	GI50 [3]	GI50 [4]	GI50 [5]	GI50 [6]	GI50 [7]	GI50 [8]	GI50 [9]	GI50 [10]	GI50 [11]	GI50 [12]	GI50 [13]	GI50 [14]	GI50 [15]	GI50 [16]	GI50 [17]	GI50 [18]	GI50 [19]	GI50 [20]
O=C1CC(/C=C/c2ccco2)=C(O)C1=O	14.8 µM (inactive)	1.84 µM (inactive)	16.4 µM (inactive)	13.6 µM (inactive)	6.05 µM (inactive)	14.8 µM (inactive)	24.2 µM (inactive)	13.6 µM (inactive)	11.7 µM (inactive)	15.7 µM (inactive)	28.8 µM (inactive)	12.8 µM (inactive)	13.2 µM (inactive)	18.6 µM (inactive)	14.2 µM (inactive)	17.9 µM (inactive)	9.59 µM (inactive)	14.6 µM (inactive)	22 µM (inactive)	16.2 µM (inactive)
Nc1cc(Cl)cc2cc(Cl)cnc12	> 100 µM (inactive)	> 100 µM (inactive)	> 100 µM (inactive)	> 100 µM (inactive)	38 µM (inactive)	> 100 µM (inactive)	> 100 µM (inactive)	> 100 µM (inactive)	> 100 µM (inactive)	> 100 µM (inactive)	> 100 µM (inactive)	> 100 µM (inactive)	> 100 µM (inactive)	82.6 µM (inactive)	> 100 µM (inactive)	> 100 µM (inactive)	> 100 µM (inactive)	> 100 µM (inactive)	> 100 µM (inactive)	> 100 µM (inactive)
c1ccc(-c2nnc(-c3ccccn3)c3c2C[C@@H]2C[C@@H]4Cc5c(-c6ccccn6)nnc(-c6ccccn6)c5[C@@H]4[C@H]32)nc1	20 µM (inactive)	41.2 µM (inactive)	50.6 µM (inactive)	48.8 µM (inactive)	41.4 µM (inactive)	80.7 µM (inactive)	32.7 µM (inactive)	22.2 µM (inactive)	44.9 µM (inactive)	35.1 µM (inactive)	34.8 µM (inactive)	55.5 µM (inactive)	44.7 µM (inactive)	35 µM (inactive)	38.5 µM (inactive)	39.9 µM (inactive)	> 100 µM (inactive)	58.7 µM (inactive)	24.2 µM (inactive)	38.8 µM (inactive)
CSc1ccc(-c2cc(-c3nc4ccccc4[nH]3)nc3[nH]c(-c4nc5ccccc5[nH]4)cc(=O)c23)cc1	82.4 µM (inactive)	84.5 µM (inactive)	41.1 µM (inactive)	71.1 µM (inactive)	> 100 µM (inactive)	> 100 µM (inactive)	> 100 µM (inactive)	93.8 µM (inactive)	68.5 µM (inactive)	37.8 µM (inactive)	–	42.5 µM (inactive)	41.9 µM (inactive)	49.2 µM (inactive)	82.4 µM (inactive)	5.33 µM (inactive)	52.5 µM (inactive)	> 100 µM (inactive)	84.5 µM (inactive)	> 100 µM (inactive)
Cc1cccc(C2NC(=O)c3ccccc3N2)c1 (centres undefined)	2.64 µM (inactive)	6.03 µM (inactive)	0.399 µM (active)	5.87 µM (inactive)	0.791 µM (active)	11 µM (inactive)	4.67 µM (inactive)	4.95 µM (inactive)	2.75 µM (inactive)	4.19 µM (inactive)	> 28.7 µM (inactive)	> 27 µM (inactive)	3.2 µM (inactive)	11.3 µM (inactive)	> 49.1 µM (inactive)	6.64 µM (inactive)	4.44 µM (inactive)	8.65 µM (inactive)	5.35 µM (inactive)	7.96 µM (inactive)
N#Cc1c(C#N)c(SSc2c(C#N)c(C#N)c(N)n2-c2ccc(F)cc2)n(-c2ccc(F)cc2)c1N	4.8 µM (inactive)	17.8 µM (inactive)	8.11 µM (inactive)	16.6 µM (inactive)	0.59 µM (active)	21.6 µM (inactive)	24.3 µM (inactive)	20.2 µM (inactive)	20.5 µM (inactive)	1.95 µM (inactive)	3.72 µM (inactive)	26.4 µM (inactive)	2.37 µM (inactive)	17.5 µM (inactive)	2.77 µM (inactive)	21.8 µM (inactive)	3.01 µM (inactive)	8.17 µM (inactive)	20.8 µM (inactive)	16 µM (inactive)
CC(=O)NC1C(OCc2ccccc2)OC(CO)C(O)C1OCC(=O)NC(C)C(=O)NC(CCC(=O)NCCCCCNc1c2ccccc2nc2cccc([N+](=O)[O-])c12)C(N)=O (centres undefined)	< 0.0001 µM (active)	< 0.0001 µM (active)	< 0.0001 µM (active)	< 0.0001 µM (active)	0.00217 µM (active)	< 0.0001 µM (active)	0.000327 µM (active)	< 0.0001 µM (active)	< 0.0001 µM (active)	< 0.0001 µM (active)	< 0.0001 µM (active)	0.00169 µM (active)	< 0.0001 µM (active)	< 0.0001 µM (active)	0.00074 µM (active)	< 0.0001 µM (active)	< 0.01 µM (active)	< 0.0001 µM (active)	0.000202 µM (active)	< 0.0001 µM (active)

From ChEMBL document CHEMBL1201862, “PubChem BioAssay data set” (2004)
